Results on 13 compounds are retold here after US12617797B2, “Substituted pyrazolo [1,5-a]pyrimidines having multimodal activity against pain” (ESTEVE PHARMACEUTICALS, S.A., priority 2020, dated 2026).

Experiment [1] addresses T1, Human σ1 receptor (Homo sapiens, UniProt Q99720).
T1 construct: expressed in transfected cells; host or cells: HEK-293
Put plainly: Human σ1 receptor radioligand assay ([3H](+)-pentazocine binding, transfected HEK-293 membranes). The following applies: binding to σ1 receptor expressed as Ki; + also covers inhibition between 1% and 50%; read-out: σ-1 binding. Summed up: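 Membranes (7 μg) were incubated with 5 nM [3H](+)-pentazocine in 50 mM Tris-HCl pH 8 for 120 min at 37° C. Non-specific binding was defined with 10 μM haloperidol. Values are % inhibition at 1 or 10 μM or Ki from five concentrations, read by filtration and scintillation counting.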

In experiment [2] the target is Human α2δ-1 subunit of Cav2.2 calcium channel (Homo sapiens, UniProt P54289). Kind of experiment: Human α2δ-1 subunit of Cav2.2 calcium channel assay ([3H]-gabapentin binding). The following applies: binding to the α2δ-1 subunit of voltage-gated calcium channels expressed as Ki; + also covers inhibition between 1% and 50%. The method, boiled down:
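Membranes enriched in human α2δ-1 incubated with 15 nM [3H]-gabapentin in 10 mM Hepes-KOH pH 7.4, 60 min at 27 °C; nonspecific binding defined with 10 μM pregabalin. Filtration and scintillation counting; % inhibition at 1 or 10 μM, or Ki from five concentrations.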

Human α2δ-1 subunit of Cav2.2 calcium channel, sequence (P54289 25-1103): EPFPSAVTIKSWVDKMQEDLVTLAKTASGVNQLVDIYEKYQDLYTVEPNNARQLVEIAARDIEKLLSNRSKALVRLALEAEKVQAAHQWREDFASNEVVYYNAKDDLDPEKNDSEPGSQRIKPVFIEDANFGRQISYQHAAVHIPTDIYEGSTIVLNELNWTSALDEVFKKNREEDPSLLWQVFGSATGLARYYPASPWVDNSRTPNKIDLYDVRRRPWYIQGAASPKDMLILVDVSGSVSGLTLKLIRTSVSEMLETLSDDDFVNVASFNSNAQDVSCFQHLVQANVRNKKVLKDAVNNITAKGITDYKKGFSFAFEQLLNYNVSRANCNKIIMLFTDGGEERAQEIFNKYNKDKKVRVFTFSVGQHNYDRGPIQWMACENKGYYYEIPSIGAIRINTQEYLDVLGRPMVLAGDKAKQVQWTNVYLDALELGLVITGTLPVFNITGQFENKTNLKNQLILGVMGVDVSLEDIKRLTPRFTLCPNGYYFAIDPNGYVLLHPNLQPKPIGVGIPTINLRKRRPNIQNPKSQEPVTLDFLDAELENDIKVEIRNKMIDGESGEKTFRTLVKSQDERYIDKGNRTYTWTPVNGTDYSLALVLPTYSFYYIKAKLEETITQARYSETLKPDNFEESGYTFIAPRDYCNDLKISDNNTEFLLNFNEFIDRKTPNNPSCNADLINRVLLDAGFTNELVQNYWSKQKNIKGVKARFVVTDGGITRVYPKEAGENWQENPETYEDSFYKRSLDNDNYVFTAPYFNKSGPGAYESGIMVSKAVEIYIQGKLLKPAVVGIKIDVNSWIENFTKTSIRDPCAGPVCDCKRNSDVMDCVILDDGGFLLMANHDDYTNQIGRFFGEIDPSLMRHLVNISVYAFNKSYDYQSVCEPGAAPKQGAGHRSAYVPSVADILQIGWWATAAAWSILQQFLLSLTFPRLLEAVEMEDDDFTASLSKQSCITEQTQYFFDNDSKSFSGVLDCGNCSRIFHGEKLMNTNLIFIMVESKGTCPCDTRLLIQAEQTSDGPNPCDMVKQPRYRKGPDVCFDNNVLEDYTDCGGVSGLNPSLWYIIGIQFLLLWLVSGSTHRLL
T1 sequence (Q99720 whole entry): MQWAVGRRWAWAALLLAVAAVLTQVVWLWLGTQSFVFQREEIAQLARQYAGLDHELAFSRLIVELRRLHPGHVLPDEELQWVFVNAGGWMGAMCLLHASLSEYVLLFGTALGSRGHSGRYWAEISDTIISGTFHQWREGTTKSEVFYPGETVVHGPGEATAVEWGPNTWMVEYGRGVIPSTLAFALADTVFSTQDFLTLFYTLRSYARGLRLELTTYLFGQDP

`COc1cnccc1-c1c(C)nn2c(C3CCCN(Cc4ccccc4)C3)ccnc12` (centres unmarked) [Example 57, 7-(1-Benzylpiperidin-3-yl)-3-(3-methoxypyridin-4-yl)-2-methylpyrazolo[1,5-a]pyrimidine]: the Ki in experiment [1] was > 1000 nM; in experiment [2], 0.5 to 5 µM.
Taken in the same sequence, the figures for `Cc1nn2c(C3CCCN(Cc4ccccc4)C3)ccnc2c1-c1ccccc1` (centres unmarked) [Example 44, 7-(1-Benzylpiperidin-3-yl)-2-methyl-3-phenylpyrazolo[1,5-a]pyrimidine] were > 1000 nM and > 5 µM.
Taken in the same sequence, the figures for `CC(=O)N1CCC(CNCc2c(C)nn3c([C@H]4CCCN(Cc5ccc(Cl)cc5)C4)ccnc23)CC1` [Example 193, (S)-1-(4-((((7-(1-(4-Chlorobenzyl)piperidin-3-yl)-2-methylpyrazolo[1,5-a]pyrimidin-3-yl)methyl)amino)methyl)piperidin-1-yl)ethan-1-one] were < 500 nM and < 0.5 µM.
Taken in the same sequence, the figures for `Cc1nn2c(C3CCCN(Cc4ccc(Cl)cc4)C3)ccnc2c1-c1cnn(C)c1` (centres unmarked) [Example 132, 7-(1-(4-Chlorobenzyl)piperidin-3-yl)-2-methyl-3-(1-methyl-1H-pyrazol-4-yl)pyrazolo[1,5-a]pyrimidine] were > 1000 nM and 0.5 to 5 µM.
For the compound `CN(C)c1ccc(-c2cc3nccc(C4CCCN(Cc5ccccc5)C4)n3n2)cc1` (centres unmarked) [Example 22, 4-(7-(1-Benzylpiperidin-3-yl)pyrazolo[1,5-a]pyrimidin-2-yl)-N,N-dimethylaniline], the Ki is > 1000 nM in experiment [1] and 0.5 to 5 µM in experiment [2].
Regarding `Cc1nn2c(C3CCCN(Cc4ccccc4)C3)ccnc2c1CO` (centres unmarked) [Example 95, (7-(1-Benzylpiperidin-3-yl)-2-methylpyrazolo[1,5-a]pyrimidin-3-yl)methanol], the figures for the Ki in experiment [1] and in experiment [2] were > 1000 nM and > 5 µM, respectively.
Taken in the same sequence, the figures for `COc1ncccc1-c1cc2nccc(C3CCCN(Cc4ccc(F)c(F)c4)C3)n2n1` (centres unmarked) [Example 119, 7-(1-(3,4-Difluorobenzyl)piperidin-3-yl)-2-(2-methoxypyridin-3-yl)pyrazolo[1,5-a]pyrimidine] were > 1000 nM and > 5 µM.
On to `Cc1nn2c(C3CCCN(Cc4ccc(Cl)cc4)C3)ccnc2c1CCN(C)C` (centres unmarked) [Example 236, 2-(7-(1-(4-Chlorobenzyl)piperidin-3-yl)-2-methylpyrazolo[1,5-a]pyrimidin-3-yl)-N,N-dimethylethan-1-amine], for which the Ki in experiment [1] was < 500 nM; in experiment [2] it was 0.5 to 5 µM.
Taken in the same sequence, the figures for `Cc1nn2c(C3CCCN(Cc4ccc(Cl)cc4)C3)ccnc2c1CNCCO` (centres unmarked) [Example 158, 2-(((7-(1-(4-Chlorobenzyl)piperidin-3-yl)-2-methylpyrazolo[1,5-a]pyrimidin-3-yl)methyl)amino)ethan-1-ol] were < 500 nM and 0.5 to 5 µM.
Taken in the same sequence, the figures for `Cc1nn2c([C@@H]3CCCN([C@@H](CO)c4ccccc4)C3)ccnc2c1-c1ccncc1` [Example 109, (R)-2-((R)-3-(2-methyl-3-(pyridin-4-yl)pyrazolo[1,5-a]pyrimidin-7-yl)piperidin-1-yl)-2-phenylethanol] were > 1000 nM and 0.5 to 5 µM.
Taken in the same sequence, the figures for `c1ccc(CN2CCCC(c3ccnc4cc(-c5cccnc5)nn34)C2)cc1` (centres unmarked) [Example 17, 7-(1-Benzylpiperidin-3-yl)-2-(pyridin-3-yl)pyrazolo[1,5-a]pyrimidine] were 500 to 1000 nM and 0.5 to 5 µM.
With `Cc1nn2c([C@@H]3CCCN(Cc4ccc(Cl)cc4)C3)ccnc2c1CN(C)C` [Example 211, (R)-1-(7-(1-(4-chlorobenzyl)piperidin-3-yl)-2-methylpyrazolo[1,5-a]pyrimidin-3-yl)-N,N-dimethylmethanamine], the Ki in experiment [1] was < 500 nM; in experiment [2] it was > 5 µM.
Taken in the same sequence, the figures for `Cc1nn2c(C3CCCN(Cc4ccc(Cl)cc4)C3)ccnc2c1CNC(C)C` (centres unmarked) [Example 159, N-((7-(1-(4-Chlorobenzyl)piperidin-3-yl)-2-methylpyrazolo[1,5-a]pyrimidin-3-yl)methyl)propan-2-amine] were < 500 nM and 0.5 to 5 µM.
